Consider 11 compounds from patent US20240076299A1, “TUBERCULATIN ANALOGS AS ANTIVIRAL AGENTS” (priority 2020, published 2024).

One data set relates to HIV. Kind of data set: microbe, parasite or virus in culture. The data set is classed as cell-based, HIV-1.
For data set [1], the system named is A549 cells. Kind of data set: Cytotoxicity evaluation using the SRB assay. The conditions noted are these: Table 1; inhibition of cell growth of host A549 cells by 50%; triplicate.
For another data set, the system named is AIV. As to the kind of experiment: microbe, parasite or virus in culture. The format is cell-based, avian influenza virus (H5N1). To be noted: Influenza A virus, read-out: EC50 (nM) AIV.
For a further data set, the system named is VSV. As to the kind of experiment: microbe, parasite or virus in culture. The data set is classed as cell-based. To be noted: Vesicular stomatitis virus, read-out: EC50 (nM) VSV.
In data set [2] the test system is SARS-CoV-2.
The nature of a further data set: in vitro. To be noted: human.
Data set [3] has as its system SARS-CoV-2. As to the kind of experiment: microbe, parasite or virus in culture. To be noted: Severe acute respiratory syndrome coronavirus 2, 48 h.
In data set [4] the test system is A549 cells. The conditions noted are these: human, 2 days.
In the next data set the test system is HIV clinical strains. The conditions noted are these: background statement; read-out: EC50 against broad HIV clinical strains; cited from earlier work.
Data set [5] in a line: Cytotoxicity evaluation using the SRB assay. The conditions noted are these: human, triplicate.
[6] abbreviates: read-out: EC50 (2000 nM) SARS-COV-2.

Like-named read-outs stand apart in the source and are kept apart here.

As to `COc1cc2c(O[C@@H]3OC[C@](O)(CO)[C@H]3O)c3c(c(-c4ccc5c(c4)OCO5)c2cc1OC)C(=O)OC3` [Tuberculatin (1), tuberculatin], in the data set with HIV (read-out: EC50), the EC50 worked out at 0.22 µM. For the same compound, the CC50 in the data set on A549 cells [1] came to 3.27 µM.
As to `COc1cc2c(O[C@H]3OC[C@@]4(COC(=O)c5ccccc5)OC(C)(C)O[C@@H]34)c3c(c(-c4ccc5c(c4)OCO5)c2cc1OC)C(=O)OC3` [Compound 27], the EC50 in the data set with HIV (Human immunodeficiency virus 1) is 0.384 µM; in the data set with AIV, 16.9 nM; in the data set on VSV, 20.8 nM. Also, in the data set with SARS-CoV-2 [2], the “activity against SARS-CoV-2 (conclusion)” value is “active molecules”. Moreover, the CC50 at 2 days was determined as 2220 nM in the data set “in vitro” (CC50 (nM)) and 379 nM in “in vitro” (CC50 (nM) A549). Further, the inhibition at 2 µM with SARS-CoV-2 [3] (setting [6]) is 93%.
As to `COc1cc2c(OC3OCC(O)(CO)C3O)c3c(c(-c4cc5c(cc4O)OCO5)c2cc1OC)C(=O)OC3` (single isomer, unassigned) [Compound 47], the concentration for a half-maximal effect (EC50) with HIV was more than 25 µM. For the same compound, the CC50 with A549 cells [4] was more than 25 µM.
In the data set on HIV, `COc1cc2c(OC3OCC(O)(CO)C3O)c3c(c(-c4cc5c(cc4O)OCO5)c2cc1OC)C(=O)OC3` (single isomer, unassigned) [Compound 46] had an EC50 of 48.6 µM. In addition, the CC50 with A549 cells [4] was more than 50 µM.
In the data set with HIV (Human immunodeficiency virus 1), `COc1cc2c(O[C@H]3OC[C@@]4(CNC(C)=O)OC(C)(C)O[C@@H]34)c3c(c(-c4ccc5c(c4)OCO5)c2cc1OC)C(=O)OC3` [Compound 32] showed an EC50 of 0.0809 µM. Moreover, the “activity against SARS-CoV-2 (conclusion)” value in the data set with SARS-CoV-2 [2] is listed as “active molecules”. In the data set “in vitro” (CC50 (nM)), the CC50 at 2 days was found to be 441 nM. In addition, the inhibition at 2 µM in the data set with SARS-CoV-2 [3] (setting [6]) turned out to be 97.4%.
With `COc1cc2c(OC3OCC(O)(CO)C3OC3OCC(O)C(O)C3O)c3c(c(-c4cc5c(cc4O)OCO5)c2cc1OC)C(=O)OC3` (single isomer, unassigned) [Compound 50], the response with HIV was half-maximal at 23.1 µM (EC50). The CC50 in the data set on A549 cells [4] is more than 25 µM.
In the data set with HIV, `COc1cc2c(OC3OCC(O)(CO)C3O)c3c(c(-c4cc5c(cc4O)OCO5)c2cc1OC)C(=O)OC3` (single isomer, unassigned) [Compound 48] had an EC50 of more than 25 µM. For the same compound, the CC50 in the data set on A549 cells [4] was more than 25 µM.
Compound `COc1cc2c(OC3OCC(O)(COC4OCC(O)C(O)C4O)C3OC3OCC(O)C(O)C3O)c3c(c(-c4cc5c(cc4O)OCO5)c2cc1OC)C(=O)OC3` (single isomer, unassigned) [Compound 52] yielded an EC50 in the data set on HIV of more than 25 µM. Also, the CC50 in the data set on A549 cells [1] is more than 25 µM.
As for `COc1cc2c(OC3OCC(O)(COC4OCC(O)C(O)C4O)C3OC3OCC(O)C(OC4OCC(O)(CO)C4O)C3O)c3c(c(-c4cc5c(cc4O)OCO5)c2cc1OC)C(=O)OC3` (single isomer, unassigned) [Compound 54], the EC50 in the data set with HIV was more than 25 µM. In the data set on A549 cells [4], this compound displayed a CC50 of more than 25 µM.
For the compound `Cc1cn([C@H]2C[C@H](N=[N+]=[N-])[C@@H](CO)O2)c(=O)[nH]c1=O` [Zidovudine (AZT), Zidovudine], the EC50 in the data set with HIV clinical strains was 0.077 to 0.095 µM.
For the compound `COc1cc2c(O[C@@H]3OC[C@@]4(COC(C)=O)OC(c5ccccc5)O[C@@H]34)c3c(c(-c4ccc5c(c4)OCO5)c2cc1OC)C(=O)OC3` (stereo partly drawn) [Compound 20], the EC50 in the data set with HIV (Human immunodeficiency virus 1) was 0.28 µM; in the data set on AIV it was 39.9 nM; in the data set on VSV, 53.8 nM. Moreover, the “activity against SARS-CoV-2 (conclusion)” value in the data set on SARS-CoV-2 [2] is on record as “active molecules”. The inhibition at 2 µM with SARS-CoV-2 [3] (read-out: EC50 (2000 nM) SARS-COV-2, % inhibitory effect at 2000 nM against SARS-CoV-2, triplicate) is more than 80%. The CC50 at 2 days is 1570 nM in data set [5] (CC50 (nM) A549, Table 2, host A549 cells) and 2580 nM in data set [5] (CC50 (nM), Table 1, inhibition of cell growth of host A549 cells by 50%).
